From doi:10.1101/2024.05.16.594348v1 (bioRxiv, 2024)
Where a SMILES comes first, the peptide text is derived from it. [ ]: non-standard residue; d: D form. βAla = NCCC(=O)O

Columns and labels:
hMSCs [1] = experiment: Peptide degradation in media on top of cells; assay type: in vitro ADME, human; conditions: 24 h, LCMS
hUVECs [2] = experiment: Peptide degradation in media on top of cells; assay type: in vitro ADME, human; conditions: 24 h, LCMS
hMSCs [3] = experiment: Peptide degradation in Cells condition with MMP-14 inhibitor, hMSCs; assay type: in vitro ADME, human; conditions: 50 μM peptide, MMP-14 inhibitor NSC 405020, 24 h, LCMS; text to Fig. 4
hUVECs [4] = experiment: Viability of hUVECs in peptide-crosslinked PEG hydrogels; assay type: cell-based, human
[5] = Peptide degradation in cell-free conditioned media; assay type: in vitro ADME, human; conditions: initial peptide library, 24 h, LCMS, text to Fig. 2B
[6] = Peptide degradation in cell-free conditioned media; assay type: in vitro ADME, human; conditions: initial peptide library, 24 h, LCMS, text to Fig. 2B; remark: listed apart in the source
hMSCs [7] = experiment: Cell spreading of hMSCs in peptide-crosslinked PEG hydrogels; assay type: cell-based, human; conditions: PEG hydrogels containing hMSCs or hUVECs at 20 million cells/mL, up to Day 7
[8] = individually synthesized peptides, 50 μM, text to Fig. 4
[9] = initial peptide library, text to Fig. 2B

Molecule	degradation in the cells condition, hMSCs (hMSCs [1]; [8])	degradation in the cells condition, hMSCs (hMSCs [1]; [9])	degradation in the cells condition, hUVECs (hUVECs [2]; [9])	degradation in the Cells + Inhibitor condition, hMSCs (hMSCs [3])	hUVEC cell number after seven days in crosslinked gels, difference (hUVECs [4]; PanMMP compared with the KLVAD peptides, DNA quantification, Fig. 6D)	hUVEC metabolic activity after seven days in crosslinked gels (hUVECs [4]; compared with the KLVAD peptides, alamarBlue, Fig. 6C)	degradation in the cells condition, hUVECs (hUVECs [2]; [8])	degradation in media condition, hMSC [5]	degradation in media condition, hUVEC [6]	cytotoxicity of hydrogels crosslinked by the peptide (hMSCs [7])
GPQGIWGQ [PanMMP, reference compound]	65%	61%	31%	22%	not significant	higher metabolic activity				
CSCC[C@H](NC(=O)[C@H](CC(C)C)NC(=O)[C@H](CC(=O)O)NC(=O)[C@H](C)NC(=O)[C@@H](NC(=O)[C@H](CC(C)C)NC(=O)[C@H](CCCCN)NC(=O)CCNC(C)=O)C(C)C)C(=O)N[C@@H](C)C(=O)N[C@@H](CO)C(=O)N[C@@H](C)C(=O)N[C@@H](CCC(=O)O)C(=O)NCCC(N)=O [KLVAD-LM] (Ac-[βAla]KLVADLMASAE[βAla]-NH2)	54%						16%			
KLVADNYASAE	22%	30%	8%				4%	less than 3%	less than 3%	cytotoxic
